The values below are quoted from earlier work in patent US20050239864A1, “Novel tumor-selective chemotherapeutic agents” (priority 2004, published 2005).

The test system of data set [1] is MDA-MB 435 human breast cancer. As to conditions: cited from earlier work.
Data set [2] has as its system mouse renal RENCA, human breast cancers MDA-MB 435 and MCF-7. The following applies: three animal tumor models; cited from earlier work.
The target in another data set is T1, endogenous albumin (Homo sapiens, UniProt P02768).
T1 construct: To determine the coupling rate and selectivity of Dox-MH for endogenous albumin, Dox-MH was incubated with human blood plasma; from tissue; host or cells: human blood plasma
The following applies: human blood plasma; cited from earlier work.

Another data set has as its target HSA (Homo sapiens, UniProt P02768). The following applies: exogenously added HSA; cited from earlier work.

Molecules are shown by their SMILES. A value given as a limit tells only on which side of the number the result lay.

T1 sequence (P02768 25-609): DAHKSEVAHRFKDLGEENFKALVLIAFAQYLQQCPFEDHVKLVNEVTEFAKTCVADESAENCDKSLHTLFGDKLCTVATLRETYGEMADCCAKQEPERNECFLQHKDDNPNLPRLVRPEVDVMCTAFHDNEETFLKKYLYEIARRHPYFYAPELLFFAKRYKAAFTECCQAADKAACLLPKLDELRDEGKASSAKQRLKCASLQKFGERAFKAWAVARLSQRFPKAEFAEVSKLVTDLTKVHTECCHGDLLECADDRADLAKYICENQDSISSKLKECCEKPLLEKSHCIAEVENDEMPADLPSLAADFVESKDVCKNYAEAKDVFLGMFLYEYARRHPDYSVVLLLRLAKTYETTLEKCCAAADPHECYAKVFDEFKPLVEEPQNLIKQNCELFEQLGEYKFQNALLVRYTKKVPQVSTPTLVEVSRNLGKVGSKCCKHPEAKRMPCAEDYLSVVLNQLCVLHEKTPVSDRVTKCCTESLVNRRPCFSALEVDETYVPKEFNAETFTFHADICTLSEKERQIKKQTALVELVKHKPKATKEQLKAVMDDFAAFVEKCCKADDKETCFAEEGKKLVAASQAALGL
Sequence of HSA (P02768 25-609): as above

As to `COc1cccc2c1C(=O)c1c(O)c3c(c(O)c1C2=O)C[C@@](O)(/C(CO)=N/NC(=O)CCCCCN1C(=O)C=CC1=O)C[C@@H]3O[C@H]1C[C@H](N)[C@H](O)[C@H](C)O1` [Dox-MH], the “antitumor response” value in data set [1] (Dox-MH at optimal dose (3×23 mg/kg)) is reported as “complete remissions were achieved”. Besides, the “change in body weight” value in data set [1] (after 24 days of drug administration) was “did not produce an overall change in body weight”. In addition, the “antitumor efficacy and toxicity versus free doxorubicin” value in data set [2] was “distinctly superior to free doxorubicin”. For the same molecule, on endogenous albumin, the “time after which reaction with HSA was almost complete” value is reported as 2 min and the “time by which all had reacted” value is no more than 90 min. At HSA, the “time by which all had reacted with HSA” value is listed as no more than 90 min and the “time by which majority had reacted with HSA” value is no more than 5 min.
